SMILES strings stand for the structures. Entries after “also recorded” stand apart in the source; their conditions may differ. Where only a bound is given, the exact number is not on record here.

One series deals with HepG2. The experiment in a line: 60-agent chemical screen, cell viability (Cell-Titer Glo), HepG2.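 Also: luminescence read-out in 384-well plates, with cells plated directly onto drug dilutions of known concentration.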 It is filed as cell-based. The settings on record: Homo sapiens, 60-agent screen, 72 hours, a value of 10,000 indicates that the drug did not inhibit viability, read-out: absolute IC50, HepG2.
In the next series the test system is Huh-6. The experiment in a line: 60-agent chemical screen, cell viability (Cell-Titer Glo), Huh-6. It is filed as cell-based. The settings on record: Homo sapiens, 60-agent screen, 72 hours, a value of 10,000 indicates that the drug did not inhibit viability, read-out: absolute IC50, Huh-6.
The next series concerns SMMC7721. Also noted: method as in PMID 27904765. The following applies: hepatocellular carcinoma cell line; cited from earlier work.
For a further series, the system named is HB-282. The experiment in a line: Cell proliferation study, HB-282. The series is classed as cell-based, human. The settings on record: Homo sapiens; 72 h drug exposure, Cell-Titer Glo, average of quadruplicates; read-out: absolute IC50, HB-282. The protocol: (§1) On day 0, cells were trypsinized and plated into white walled 384-well plates. On day 1, when cells were 70% confluent, volasertib (S2235, SelleckChem, Houston, TX), SN38 (S4908, SelleckChem) or vincristine (S1241, SelleckChem) suspended in DMSO were added to plates using a Tecan D300e drug printer (Tecan Life Sciences, Switzerland), ensuring less than 1% DMSO. […] Absolute IC50 values were calculated using GraphPad Prism (GraphPad, San Diego, CA). Synergy values were calculated using CalcuSyn (Biosoft, Cambridge, UK) software.

The subject of the next series is HB-214 PDX. The experiment in a line: HB-214 hepatoblastoma PDX in athymic nude mice. It is filed as in vivo. The settings on record: volasertib 30 mg/kg IV 2qwk, irinotecan 10 mg/kg IP q5d, alone or combined; 6 mice per group.
The test system of series [1] is HB-279. The experiment in a line: Cell proliferation study, HB-279. The settings on record: Homo sapiens; 72 h drug exposure, Cell-Titer Glo, average of quadruplicates; read-out: absolute IC50, HB-279. The series is classed as cell-based, human. The protocol:
as §1

Series [2] relates to hepatoblastoma cell lines HepG2, Huh-6 and HB-214 versus hepatocytes. The series is described as follows: 60-agent chemical screen, hepatoblastoma cell lines taken together / versus hepatocytes. The settings on record: Homo sapiens, Hepatocyte, read-out: IC50, cancer cells.
Method: (§2) On day 0, cells were trypsinized and plated into a white walled 384-well plate containing pre-diluted known concentrations of various drugs. After 72 hours, an equal volume of Cell-Titer Glo 2.0 (G9243, Promega) was added to each well, incubated at room temperature while rocking in the dark for 15 minutes, followed by luminescence acquisition with a BioTek Synergy HT plate reader (BioTek, Winooski, VT).
For series [3] the following is noted: volasertib; cited from earlier work.
For series [4] the following is noted: measured in clinical trials; cited from earlier work.
In a further series the test system is PLK2. The arrangement: method as in PMID 19383823. The following applies: read-out: cell-free enzyme IC50, PLK2; cited from earlier work.
A further series concerns SK-Hep1. The arrangement: method as in PMID 27904765. The following applies: hepatocellular carcinoma cell line; cited from earlier work.
For the next series, the system named is HB-243. The series is described as follows: Cell proliferation study, HB-243. It is filed as cell-based, human. The settings on record: Homo sapiens; 72 h drug exposure, Cell-Titer Glo, average of quadruplicates; read-out: absolute IC50, HB-243. The protocol:
as §1

Series [5] deals with HB-279. The experiment in a line: Cell cycle analysis by flow cytometry (PI staining), HB-279. It is filed as cell-based, human. The protocol: After a 72-hour drug treatment, cells were collected and fixed in ice cold 70% ethanol. After rehydration, cells were stained using the Guava Cell Cycle Reagent for Flow Cytometer (4500-0220, MilliporeSigma, Germany) according to the product protocol. Cells were analyzed for propidium iodide using the Guava EasyCyte 8HT (MilliporeSigma). Flow data was analyzed using CytoBank software (Cytobank, Santa Clara, CA).
In general terms: Flow cytometry measures light scatter and fluorescence of single cells or particles in a stream.

The next series has as its system HB-295. The series is described as follows: Cell proliferation study, HB-295. The series is classed as cell-based, human. The following applies: Homo sapiens; 72 h drug exposure, Cell-Titer Glo, average of quadruplicates; read-out: absolute IC50, HB-295. How it is done:
as §1

For series [6], the system named is HB-214. The experiment in a line: Cell proliferation study, HB-214. It is filed as cell-based. The following applies: Homo sapiens; 72 h drug exposure, Cell-Titer Glo, average of quadruplicates; read-out: absolute IC50, HB-214. How it is done:
as §1

Another series deals with normal human hepatocytes. The series is described as follows: 60-agent chemical screen, cell viability (Cell-Titer Glo), hepatocytes.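 Also: cells were plated onto pre-diluted drug concentrations in 384-well plates, and viability was read after 72 h as CellTiter-Glo 2.0 luminescence.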 It is filed as cell-based. The settings on record: Hepatocyte, as restated in the discussion, read-out: IC50, normal hepatocytes.
A further series concerns PLK3. The arrangement: method as in PMID 19383823. The settings on record: read-out: cell-free enzyme IC50, PLK3; cited from earlier work.
The subject of the next series is HB-284. The experiment in a line: Cell proliferation study, HB-284. It is filed as cell-based, human. The settings on record: Homo sapiens; 72 h drug exposure, Cell-Titer Glo, average of quadruplicates; read-out: absolute IC50, HB-284. How it is done: as §1
The next series concerns PLK1. The arrangement: method as in PMID 19383823. The following applies: read-out: cell-free enzyme IC50, PLK1; cited from earlier work.
The subject of series [7] is six hepatoblastoma cell cultures. The series is described as follows: Cell proliferation study, six hepatoblastoma cell cultures together. The following applies: Homo sapiens; range over HB-214, HB-243, HB-279, HB-282, HB-284, HB-295; read-out: IC50 across all six hepatoblastoma cell cultures. It is filed as cell-based, human. The protocol:
as §1

The subject of series [8] is HB-214. The experiment in a line: 60-agent chemical screen, cell viability (Cell-Titer Glo), HB-214.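 Also: viability read as luminescence once Cell-Titer Glo 2.0 reagent was added to drug-treated cells in 384-well plates.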 The series is classed as cell-based. The settings on record: Homo sapiens; 60-agent screen, 72 hours; a value of 10,000 indicates that the drug did not inhibit viability; read-out: absolute IC50, HB-214.
Method: as §2

Method for HB-214 PDX: These fragments were engrafted in the interscapular region of 6-8 week-old female athymic nude mice (Athymic NudeFoxn1^nu, ENVIGO, Gannat, France). After latency period, mice with a subcutaneously growing tumor between 62 and 256 mm^3 were allocated to each treatment arm according to their tumor volume to obtain homogenous mean and median tumor volume in each arm. Treatments were randomly attributed to boxes housing up to five mice. […] Tumor volume (TV) was evaluated by caliper measurement, 2 or 3 times a week during latency and treatment period. The formula Total Volume (TV) (mm^3) = [length (mm) x width (mm)^2]/2 was used, where the length and the width are the longest and the shortest diameters of the tumor. The tumor growth delay index (TGDI) was calculated as the median growth delay in the treated group divided by the median growth delay in the control group, and represented the x-fold time to reach 5-fold the TV at D0.The ratio between the mean TV of a treated group (T) and the mean TV of the control group (C) was calculated at each measurement, and represented the antitumoral activity of the tested compound(s). The tumor growth rate, evaluated by the formula [DT/T0]-1 where DT is the delta of tumor size between the considered day and the day of enrolment and T0 is mean TV at D0, gives the percentage of growth compared with the initial day. […]
Method for normal human hepatocytes: as §2

For the compound `CC[C@@H]1C(=O)N(C)c2cnc(Nc3ccc(C(=O)N[C@H]4CC[C@H](N5CCN(CC6CC6)CC5)CC4)cc3OC)nc2N1C(C)C` [volasertib], the IC50 in the series on HepG2 is 528 nM; in the series on Huh-6, 3820 nM; in the series on SMMC7721 it was 3970 nM; in the series on HB-282, 2130 nM; in the series on HB-279 [1], 2020 nM; in [2], 360 to 528 nM. Moreover, the IC50 was 5 nM with PLK2; 7020 nM with SK-Hep1; 252 nM in the series on HB-243; 1170 nM with HB-295; 725 nM in the series with HB-214 [6]; over 10000 nM with normal human hepatocytes. The IC50 was 56 nM with PLK3; 3300 nM in the series on HB-284; 0.87 nM in the series with PLK1; under 10000 nM in series [7]; 360 nM with HB-214 [8]. Besides, the “tumor growth (mean tumor volume over time)” value in the series with HB-214 PDX is “appreciable and cytostatic; also recorded: slowed”. For the same compound, in series [3], the side effects result was “neutropenia and anemia”. The Cmax in [4] was 1220 nM. For the same compound, in the series with HB-279 [5] (HB-279, 72 hour treatment, 150 nM volasertib, 3 nM SN38, N=3, DMSO 16.1), the “Percent of cells in S phase” value was found to be 14.2%. In the series on HB-279 [5] (HB-279, 72 hour treatment, 150 nM volasertib, 3 nM SN38, N=3, DMSO 26.8), the “Percent of cells in G2/M” value was 40.7%. In addition, the “Percent of cells in G1” value in the series with HB-279 [5] (HB-279, 72 hour treatment, 150 nM volasertib, 3 nM SN38, N=3, DMSO 56.5) is on record as 44.7%. Moreover, the “cell cycle arrest as compared to vehicle control” value in the series with HB-279 [5] (clinically achievable concentrations, 72 hours) is “cell cycle arrest in G2/M”.

As a reminder, the IC50 is the point on the concentration scale where inhibition reaches its midpoint. By Cmax is commonly meant the peak of the concentration-time curve.

Values taken from paper PMC6849653, “Volasertib preclinical activity in high-risk hepatoblastoma” (Oncotarget, 2019).
